{"source": "patent US10213428B2", "about": "“(4-((3R,4R)-3-methoxytetrahydro-pyran-4-ylamino)piperidin-1-yl)(5-methyl-6-(((2R,6S)-6-(p-tolyl)tetrahydro-2H-pyran-2-yl)methylamino)pyrimidin-4-yl)methanone citrate” (Centrexion Therapeutics Corporation, priority 2015, dated 2019)", "key": {"[1]": {"assay": "In vitro plasma protein binding (equilibrium dialysis), minipig", "format": "in vitro ADME", "conditions": "pH 7.4, dialysis 2 hours at 37° C., read-out: Fraction bound (converted)", "protocol": "(§1) Dianorm Teflon dialysis cells (micro 0.2) are used. Each cell consists of a donor (i.e., buffer chamber) and an acceptor chamber (i.e., plasma chamber), separated by an ultrathin semipermeable membrane with a 5 kDa molecular weight cutoff. Stock solutions for each test compound are prepared in DMSO at 1 mM and diluted to a final concentration of 1.0 μM. Aliquots of 200 μL dialysis buffer (100 mM potassium phosphate, pH 7.4) are dispensed into the buffer chamber. Aliquots of 200 μL test compound dialysis solution are dispensed into the plasma chambers. Incubation is carried out for 2 hours under rotation at 37° C. Then, the dialysate is transferred into reaction tubes. The tubes for the buffer fraction contain 0.2 mL acetonitril/water (80/20 volume/volume). Aliquots of 25 μL of the plasma dialysate are transferred into deep well plates and mixed with 25 μL acetonitril/water (80/20 volume/volume), 25 μL buffer, 25 μL calibration solution and 25 μL Internal Standard solution. Protein precipitation is done by adding 200 μL acetonitrile. Aliquots of 50 μL of the buffer dialysate are transferred into deep well plates and mixed with 25 μL blank plasma, 25 μL Internal Standard solution and 200 μL acetonitril. Percent bound is calculated with the formula: % bound=(plasma concentration−buffer concentration/plasma concentration)×100."}, "plasma protein": {"system": "plasma protein", "assay": "In vitro plasma protein binding (equilibrium dialysis), minipig", "format": "in vitro ADME", "conditions": "1.0 μM, dialysis 2 hours at 37° C.", "protocol": "as §1"}, "[2]": {"assay": "In vitro metabolic stability in hepatocyte incubations, human", "format": "in vitro ADME", "conditions": "hepatocytes (suspension); Human; predicted from hepatocyte CL intrinsic, well stirred model; read-out: CL, in vivo", "protocol": "(§2) Metabolic degradation of the test compound is assayed in a hepatocyte suspension. Hepatocytes are incubated in an appropriate buffer system. Following a (typically) 30 min preincubation in an incubator (37° C., 10% CO2) 5 μL of test compound solution (1 μM) are added into 395 μL hepatocyte suspension (cell density in the range 0.25-5 Mio cells/mL, typically 1 Mio cells/mL, final DMSO concentration 0.05%). The cells are incubated for six hours (incubator, orbital shaker) and samples (25 μL) are taken at 0, 0.5, 1, 2, 4 and 6 hours. Samples are transferred into acetonitrile and pelleted by centrifugation (5 min). The supernatant is transferred to a new 96-deepwell plate, evaporated under nitrogen and resuspended. Decline of parent compound is analyzed by HPLC-MS/MS. CLint is calculated as follows CL_INTRINSIC=Dose/AUC=(CO/CD)/(AUD+clast/k)×1000/60. […]"}, "hepatocytes": {"system": "hepatocytes", "assay": "In vitro metabolic stability in hepatocyte incubations, human", "format": "in vitro ADME", "conditions": "Human hepatocytes, 1 μM", "protocol": "as §2"}, "[3]": {"assay": "Intravenous pharmacokinetics in dog", "format": "in vivo, beagle dogs", "conditions": "IV dose 5 μmol/kg, mean values", "from_the_text": "The pharmacokinetics of the test compound following single intravenous (IV) or oral (PO) doses were examined in • female BALB/c mice (average weight: 25 g) • male Wistar(Han) rats (average weight: 260 g) • male and female Göttingen Minipigs (average weight: 24 kg) • male beagle dogs (average weight: 15 kg) All non-rodent species were fasted overnight prior to dosing, while mice and rats had food and water available ad libitum. The p.o. dose of the compound was usually administered as suspension in 0.5% Natrosol or as a 0.5% Natrosol/0.015% Tween 80 suspension. For i.v. dosing purposes, the doses were applied as a solution in 0.9% NaCL, or as a solution containing 9.1% HP-beta Cyclodextrin in water.\nBlood was collected by venous sampling and soaking of the blood in EDTA coated tubes. Samples were collected for up to 48 h after administration of the test compound. Plasma was then separated by centrifugation (5 min by approximately 9000 g at 4° C.). For determination of the test compound, plasma was transferred into PCR plates. All samples were stored at approximately −20° C. until bioanalytics. The test compound concentrations in plasma were determined by HPLC MS/MS. The lower limit of quantification was between 0.5 nmol/L and 1 nmol/L."}, "[4]": {"conditions": "male, beagle, plasma, 5 umol/kg"}}}
{"smiles": "CO[C@H]1COCC[C@H]1NC1CCN(C(=O)c2ncnc(NC[C@H]3CCC[C@@H](c4ccc(C)cc4)O3)c2C)CC1", "note": "[compound I, (4-((3R,4R)-3-methoxytetrahydro-pyran-4-ylamino)piperidin-1-yl)(5-methyl-6-(((2R,6S)-6-(p-tolyl)tetrahydro-2H-pyran-2-yl)methylamino)pyrimidin-4-yl)methanone]", "values": [{"measurement": "fraction unbound at 2 h, 1 μM", "setting": "[1]", "result": 0.392}, {"measurement": "Fraction unbound", "setting": "plasma protein", "result": 39.2, "unit": "%"}, {"measurement": "CLhep predicted at 1 μM", "setting": "[2]", "result": 7.9, "unit": "mL/min/kg"}, {"measurement": "CL intrinsic, in vitro", "setting": "hepatocytes", "result": 4.11, "unit": "μL/min/10e6 cells"}, {"measurement": "MRTdisp", "setting": "[3]", "result": 6.40, "unit": "h"}, {"measurement": "AUC(0-inf)", "setting": "[3]; [4]", "result": 5.99, "unit": "µM·h"}, {"measurement": "clearance", "setting": "[3]; [4]", "result": 14, "unit": "mL/min/kg"}, {"measurement": "Vd", "setting": "[3]; male, beagle, plasma, 5 umol/kg, read-out: Vss", "result": 4.94, "unit": "L/kg"}]}
